Literature values, collected in patent publication EP4135668B1, “SOLID ORAL DOSAGE FORM COMPRISING POMALIDOMIDE” (Tecnimede, Sociedade Técnico-Medicinal, SA, priority 2020, dated 2021).

Conditions: low aqueous solubility and low permeability active compound

## Nc1cccc2c1C(=O)N(C1CCC(=O)NC1=O)C2=O (stereo not shown) [Pomalidomide, 4-amino-2-(2,6-dioxopiperidine-3-yl)isoindoline-l,3-dione]
  Biopharmaceutics Classification System (BCS) class: Class IV
